Measurements from patent EP0603240B1, “SAFENING HERBICIDAL PYRAZOLYLSULFONYLUREAS” (priority 1991, dated 1993).

How the values were obtained:
Assay type in all cases: in vivo
corn [1] = test: Example 19, Procedure II: Herbicide No. 1 + ERADICANE EXTRA with added antidotes
Experimental: (§1) Containers were filled and compacted with a fumigated silt loam top soil to a depth of about 1.3 cm from the top of the container. A first container was designated as an untreated control, a second container was designated as a herbicide control, and a third container was designated as a herbicide + antidote test container. Each of the containers was seeded with a crop species. A measured amount of herbicide dispersed or dissolved in acetone was applied to a measured quantity of soil. To this same quantity of soil treated with herbicide, there was added a measured amount of antidote dispersed or dissolved in acetone. The quantity of soil treated with the herbicide and antidote was thoroughly mixed to incorporate the herbicide and antidote in the soil uniformly. The seed bed in the third container of soil was covered with the soil treated with the herbicide and antidote and the container was leveled. For each test series, the seed beds of the first and second containers were likewise covered by soil layers. the cover layer of the first container was not treated with herbicide or antidote.
(§2) The containers were then placed on a bench in a greenhouse and sub-irrigated as required for the duration of the test. […] Plant response is measured in terms of percent injury. Antidote efficacy is indicated as the difference in plant injury by the herbicide(s) without the antidote and with the antidote.
(§3) This procedure is the same as Procedure I, but modified in the manner that after incorporation of the chemicals (herbicide and antidote) the containers with the covered seedbed were treated with an initial overhead irrigation equivalent to 0.6 cm rainfall, then subsequently sub-irrigated as required on greenhouse benches.
In the test reported in this example, the herbicidal composition was similar to that used in Example 16 in that Herbicide No. 1 was combined with EPTC (Herbicide No. 4) as a co-herbicide and the antidotes included Nos. 1, 2, 7, 13 and 15. However, in this test the EPTC was introduced as a formulation of ERADICANE (EPTC + the antidote R-25788, i.e., Antidote No. 1) at an application rate of 8.96 kg/ha. Thus, in this test two antidotes were present, viz. R-25788 and one of the auxilliary antidotes, No. 2, 13 and 15.
The test reported in this example was performed in the same manner and with the same antidotes used in Example 18, the only difference being the substitution of the commercial herbicidal product ERADICANE® EXTRA for ERADICANE®. ERADICANE EXTRA is a formulation containing both an antidote, i.e., R-29148 (Antidote No. 5 herein), and an extender, dietholate.

corn [2] = test: Example 23, Procedure II: Antidote Nos. 15 and 17-21 against Herbicide No. 1, 13 days after application; settings: 13 days after application
Experimental: as §1, §2, §3
(§4) In other greenhouse tests, using Procedure II described above, the safening efficacy of Antidote Nos. 15 and 17-21 was evaluated against Herbicide No. 1 in corn in the presence of Giant foxtail (Setaria fabergi) and Velvetleaf (Abutilon theophrasti) as representative annual monocotyledonous and dicotyledonous weeds, respectively.
(§5) Test results are shown in Tables 23A and 23B wherein the indicated plant inhibition represents the average of duplicate replications, with observations being made thirteen (13) days after application of the chemicals. Giant foxtail and Velvetleaf are represented by the symbols "GFT" and "VL", respectively. The data in Table 23A show the test results using the antidotes at 2.24 kg/ha, whereas in Table 23B, the antidotal rate was reduced to 0.56 kg/ha.

[3] = system: Giant foxtail (Setaria fabergi); test: as above
Experimental: as §1, §2, §3, §4, §5

[4] = system: velvetleaf (Abutilon theophrasti); test: as above
Experimental: as §1, §2, §3, §4, §5

[5] = Table 23A, Herb. No. 1 0.14 Kg/Ha + antidote 2.24 Kg/ha
[6] = Table 23A, Herb. No. 1 0.28 Kg/Ha + antidote 2.24 Kg/ha
[7] = Table 23A, Herb. No. 1 0.56 Kg/Ha + antidote 2.24 Kg/ha
[8] = Table 23A, Herb. No. 1 1.12 Kg/Ha + antidote 2.24 Kg/ha
[9] = Table 23B, Herb. No. 1 0.14 Kg/Ha + antidote 0.56 Kg/ha
[10] = Table 23B, Herb. No. 1 0.28 Kg/Ha + antidote 0.56 Kg/ha
[11] = Table 23B, Herb. No. 1 0.56 Kg/Ha + antidote 0.56 Kg/ha
[12] = Table 23B, Herb. No. 1 1.12 Kg/Ha + antidote 0.56 Kg/ha

Structure (SMILES)	% Inhibition Corn (corn [2]; [5]) [%]	% Inhibition Corn (corn [2]; [6]) [%]	% Inhibition Corn (corn [2]; [7]) [%]	% Inhibition Corn (corn [2]; [8]) [%]	% Inhibition Corn (corn [2]; [9]) [%]	% Inhibition Corn (corn [2]; [10]) [%]	% Inhibition Corn (corn [2]; [11]) [%]	% Inhibition Corn (corn [2]; [12]) [%]	% Inhibition GFT [3, 5] [%]	% Inhibition GFT [3, 6] [%]	% Inhibition GFT [3, 7] [%]	% Inhibition GFT [3, 8] [%]	% Inhibition GFT [3, 9] [%]	% Inhibition GFT [3, 10] [%]	% Inhibition GFT [3, 11] [%]	% Inhibition GFT [3, 12] [%]	% Inhibition VL [4, 5] [%]	% Inhibition VL [4, 6] [%]	% Inhibition VL [4, 7] [%]	% Inhibition VL [4, 8] [%]	further results
COC(=O)c1c(Cl)nn(C)c1S(=O)(=O)NC(=O)Nc1nc(OC)cc(OC)n1 [No.1]																					% Injury Corn (corn [1]; Herbicide No.1 0.56 kg/ha + ERADICANE EXTRA 8.96 kg/ha, no added antidote): 30%; % Injury Corn (corn [1]; Herbicide No.1 0.56 kg/ha alone): 20%; % Injury Corn (corn [1]; Herbicide No.1 1.12 kg/ha + ERADICANE EXTRA 8.96 kg/ha, no added antidote): 20%; % Injury Corn (corn [1]; Herbicide No.1 1.12 kg/ha alone): 25%
O=C(O)COC(c1ccccc1)c1ccccc1 [compound 19]	0	0	5	15	0	5	15	40	15	30	50	70	25	40	60	65	90	85	95	95	% Inhibition VL [4, 9]: 85%; % Inhibition VL [4, 10]: 85%; % Inhibition VL [4, 11]: 90%; % Inhibition VL [4, 12]: 90%
O=C(O)COC(c1ccccc1)c1ccccc1 [compound 18]	0	0	10	10	5	5	20	30	15	30	65	70	15	20	60	60	90	95	95	95	% Inhibition VL [4, 9]: 90%; % Inhibition VL [4, 10]: 95%; % Inhibition VL [4, 11]: 90%; % Inhibition VL [4, 12]: 95%
CC1COc2ccccc2N1C(=O)C(Cl)Cl (stereo not shown) [compound 17]	0	0	15	25	0	10	20	30	25	25	60	70	15	40	55	65	95	85	95	95	% Inhibition VL [4, 9]: 90%; % Inhibition VL [4, 10]: 90%; % Inhibition VL [4, 11]: 90%; % Inhibition VL [4, 12]: 95%
COC(=O)COC(c1ccccc1)c1ccccc1 [compound 20]	0	0	0	15	0	5	20	40	15	35	40	65	15	20	60	75	90	90	85	90	% Inhibition VL [4, 9]: 90%; % Inhibition VL [4, 10]: 90%; % Inhibition VL [4, 11]: 90%; % Inhibition VL [4, 12]: 95%
CCSC(=O)COC(c1ccccc1)c1ccccc1 [compound 21]	0	0	5	30	0	5	20	35	10	20	35	70	20	45	50	75	85	85	95	95	% Inhibition VL [4, 9]: 85%; % Inhibition VL [4, 10]: 90%; % Inhibition VL [4, 11]: 90%; % Inhibition VL [4, 12]: 95%
